# Reference: patent US20230286927A1, “2-PHENYLBENZOTRIAZOL-5-AMINE DERIVATIVES FOR THE TREATMENT AND PROPHYLAXIS OF HEPATITIS B VIRUS (HBV) INFECTION” (priority 2020, published 2023)
# Assays:
# [1] = test system: HBeAg; assay: PHH natural infection assay, HBeAg (alphalisa); assay type: cell-based, HBV; settings: Hepatitis B virus, Hepatocyte, 72 h, read-out: HBeAg IC50
# Protocol: (§1) Detailed procedures regarding primary human hepatocyte (PHH) HBV natural infection assay are described as below. One tube of frozen PHH (10 million cells) is thawed in 37° C. water bath and then transferred to 20 mL of PHH thawing medium (Sigma, InVitroGRO HT Medium, Cat. S03319) with gently mixing. The cells were then centrifuged at […] for 5 min, the supernatant was discarded and the tube was refilled with 25 mL of PHH plating medium (Sigma, InVitroGRO CP Medium, Cat. S03317). The tube was shaken very gently to re-suspend all cells, and then 50 μl of cells were transferred to each well 384-well collagen I coated plate with appropriate liquid handling equipment, e.g. Integra VIAFLO384 or Agilent Bravo. The cells were then cultured for 24 hours in a cell incubator. For HBV infection, after PHH attachment on the culture plate, the plating medium was removed and replenished with PHH culture medium containing HBV virus. The PHH culture medium was prepared with Dulbecco's Modified Eagle Medium (DMEM)/F12 (1:1 in volume ratio) containing 10% fetal bovine serum (Gibco, Cat. 10099141), 5 ng/mL human epidermal growth factor (Gibco, Cat.PHG031IL), 20 ng/mL dexamethasone (Sigma, Cat.D4902-100 mg), 250 ng/mL human recombinant insulin (Gibco, Cat.41400045) and 100 U/mL penicillin. HBV virus at 200 genome equivalent (GE) per cell with 4% PEG8000 (Sigma, Cat.P1458) containing culture medium were added to the PHH culture medium for infection. The cells were then cultured for 24 hours in cell incubator. Then the cell culture supernatant was removed. The HBV-infected PHH were cultured with sandwich culture method with PHH culture medium containing 1% DMSO and 0.25 mg/mL matrix gel for 72 hours. The supernatant was then refreshed with PHH culture medium containing different concentrations of testing compounds for two times with 72-hour interval. At the end of treatment, the supernatant was collected for viral markers measurements, including HBsAg, HBeAg, HBV DNA and cytotoxicity. HBsAg and HBeAg were detected using alphalisa method using their specific antibodies. For HBV DNA detection, HBV DNA Quantitative Fluorescence Diagnostic Kit (Sansure Biotech Inc.) was used following the manufacture's protocol. Cytotoxicity was determined using Cell Counting Kit-8 (CCK8, Dojindo Molecular Technologies, Inc.).
# (§2) The compounds of the present invention were tested for their capacity to inhibit HBsAg and HBeAg as described herein.
# [2] = test system: HBsAg; assay: PHH natural infection assay, HBsAg (alphalisa); assay type: cell-based, HBV; settings: Hepatitis B virus, Hepatocyte, 72 h, read-out: HBsAg IC50
# Protocol: as §1, §2
# [3] = Cytotoxicity in PHH natural infection assay (Cell Counting Kit-8); assay type: cell-based; settings: HBV-infected primary human hepatocytes, CCK8
# Protocol: as §1
SMILES,IC50 [1] [µM],IC50 [2] [µM],CC50 at 144 h [3] [µM]
"Nc1ccc2nn(-c3cccc(Cl)c3)nc2c1 [Example 1, 2-(3-Chlorophenyl)benzotriazol-5-amine]",1.8,1.2,> 100
"Nc1ccc2nn(-c3ccc(Cl)cc3)nc2c1 [Example 2, 2-(4-Chlorophenyl)benzotriazol-5-amine]",5.29,7.97,> 100
"COc1ccc(-n2nc3ccc(N)cc3n2)cc1 [Example 3, 2-(4-Methoxyphenyl)benzotriazol-5-amine]",1.7,1.5,> 100
"Nc1ccc2nn(-c3ccc(F)cc3)nc2c1 [Example 4, 2-(4-Fluorophenyl)benzotriazol-5-amine]",5.29,5.04,> 100
"Nc1ccc2nn(-c3cccc(F)c3)nc2c1 [Example 5, 2-(3-Fluorophenyl)benzotriazol-5-amine]",6.72,3.57,> 100
"COc1cccc(-n2nc3ccc(N)cc3n2)c1 [Example 6, 2-(3-Methoxyphenyl)benzotriazol-5-amine]",4.1,2.44,> 100
"CS(=O)(=O)c1ccc(-n2nc3ccc(N)cc3n2)cc1 [Example 7, 2-(4-Methylsulfonylphenyl)benzotriazol-5-amine]",3.21,5.67,> 100
"CCS(=O)(=O)c1ccc(-n2nc3ccc(N)cc3n2)cc1 [Example 8, 2-(4-Ethylsulfonylphenyl)benzotriazol-5-amine]",6.26,6.32,> 100
"COCCS(=O)(=O)c1ccc(-n2nc3ccc(N)cc3n2)cc1 [Example 9, 2-[4-(2-Methoxyethylsulfonyl)phenyl]benzotriazol-5-amine]",7.93,4.07,> 100
"CC(C)CS(=O)(=O)c1ccc(-n2nc3ccc(N)cc3n2)cc1 [Example 10, 2-(4-Isobutylsulfonylphenyl)benzotriazol-5-amine]",5.56,9.57,> 100
"Cc1cc(N)cc2nn(-c3ccc(Cl)cc3)nc12 [Example 11, 2-(4-Chlorophenyl)-7-methyl-benzotriazol-5-amine]",3.89,2.66,> 100
"CNc1ccc2nn(-c3ccc(Cl)cc3)nc2c1 [Example 12, 2-(4-Chlorophenyl)-N-methyl-benzotriazol-5-amine]",2.44,1.83,> 100
"CCNc1ccc2nn(-c3ccc(Cl)cc3)nc2c1 [Example 13, 2-(4-Chlorophenyl)-N-ethyl-benzotriazol-5-amine]",1.6,1.3,> 100
"CCCNc1ccc2nn(-c3ccc(Cl)cc3)nc2c1 [Example 14, 2-(4-Chlorophenyl)-N-propyl-benzotriazol-5-amine]",3.97,2.92,> 100
"COCCNc1ccc2nn(-c3ccc(Cl)cc3)nc2c1 [Example 15, 2-(4-Chlorophenyl)-N-(2-methoxyethyl)benzotriazol-5-amine]",2.36,3.71,> 100
"c1ccc(-n2nc3ccc(NC4CCCC4)cc3n2)cc1 [Example 16, N-cyclopentyl-2-phenyl-benzotriazol-5-amine]",15.8,9.25,> 100
"COCCNc1ccc2nn(-c3cccc(OC)c3)nc2c1 [Example 17, N-(2-methoxyethyl)-2-(3-methoxyphenyl)benzotriazol-5-amine]",15.4,8.06,> 100
"COCCNc1ccc2nn(-c3cccc(Cl)c3)nc2c1 [Example 18, 2-(3-Chlorophenyl)-N-(2-methoxyethyl)benzotriazol-5-amine]",6.83,4.5,> 100

SMILES,IC50 [1] [µM],IC50 [2] [µM],CC50 at 144 h [3] [µM]
"COCCNc1ccc2nn(-c3ccc(S(C)(=O)=O)cc3)nc2c1 [Example 19, N-(2-methoxyethyl)-2-(4-methylsulfonylphenyl)benzotriazol-5-amine]",6.97,8.94,> 100
"Fc1ccc(-n2nc3ccc(NCC4CCOC4)cc3n2)cc1 (stereo not drawn) [Example 20, 2-(4-Fluorophenyl)-N-(tetrahydrofuran-3-ylmethyl)benzotriazol-5-amine]",7.3,5.66,> 100
"Fc1ccc(-n2nc3ccc(NC4CCOC4)cc3n2)cc1 (stereo not drawn) [Example 21, 2-(4-Fluorophenyl)-N-tetrahydrofuran-3-yl-benzotriazol-5-amine]",10.6,9.74,> 100
"COCCCNc1ccc2nn(-c3ccc(F)cc3)nc2c1 [Example 22, 2-(4-Fluorophenyl)-N-(3-methoxypropyl)benzotriazol-5-amine]",6.4,3.27,> 100
"Clc1ccc(-n2nc3ccc(NCC4CCOC4)cc3n2)cc1 (stereo not drawn) [Example 23, 2-(4-Chlorophenyl)-N-(tetrahydrofuran-3-ylmethyl)benzotriazol-5-amine]",7.67,4.92,> 100
"Clc1ccc(-n2nc3ccc(NCC4CCC4)cc3n2)cc1 [Example 24, 2-(4-Chlorophenyl)-N-(cyclobutylmethyl)benzotriazol-5-amine]",8.9,7.72,> 100
"Clc1ccc(-n2nc3ccc(NCC4CC4)cc3n2)cc1 [Example 25, 2-(4-Chlorophenyl)-N-(cyclopropylmethyl)benzotriazol-5-amine]",7.52,5.95,> 100
"Clc1ccc(-n2nc3ccc(NCC4CCCC4)cc3n2)cc1 [Example 26, 2-(4-Chlorophenyl)-N-(cyclopentylmethyl)benzotriazol-5-amine]",3.08,8.79,> 100
"Clc1ccc(-n2nc3ccc(NCC4CCCO4)cc3n2)cc1 (stereo not drawn) [Example 27, 2-(4-Chlorophenyl)-N-(tetrahydrofuran-2-ylmethyl)benzotriazol-5-amine]",11.7,6.07,> 100
"FC(F)(F)CNc1ccc2nn(-c3ccc(Cl)cc3)nc2c1 [Example 28, 2-(4-Chlorophenyl)-N-(2,2,2-trifluoroethyl)benzotriazol-5-amine]",2.46,2.14,> 100
"Clc1ccc(-n2nc3ccc(NC4CCC4)cc3n2)cc1 [Example 29, 2-(4-Chlorophenyl)-N-cyclobutyl-benzotriazol-5-amine]",9.23,5.55,> 100
"CC(C)Nc1ccc2nn(-c3ccc(Cl)cc3)nc2c1 [Example 30, 2-(4-Chlorophenyl)-N-isopropyl-benzotriazol-5-amine]",6.61,3.75,> 100
"Clc1ccc(-n2nc3ccc(NC4CCCC4)cc3n2)cc1 [Example 31, 2-(4-Chlorophenyl)-N-cyclopentyl-benzotriazol-5-amine]",11.9,8.86,> 100
"CC(Nc1ccc2nn(-c3ccc(Cl)cc3)nc2c1)C(F)(F)F (stereo not drawn) [Example 32, 2-(4-Chlorophenyl)-N-(2,2,2-trifluoro-1-methyl-ethyl)benzotriazol-5-amine]",10.7,9.14,> 100
"CN(C)c1ccc2nn(-c3ccc(Cl)cc3)nc2c1 [Example 33, 2-(4-Chlorophenyl)-N,N-dimethyl-benzotriazol-5-amine]",3.71,4,> 100
"CCN(CC)c1ccc2nn(-c3ccc(Cl)cc3)nc2c1 [Example 34, 2-(4-Chlorophenyl)-N,N-diethyl-benzotriazol-5-amine]",2.5,1.8,> 100
"COCCN(C)c1ccc2nn(-c3ccc(Cl)cc3)nc2c1 [Example 35, 2-(4-Chlorophenyl)-N-(2-methoxyethyl)-N-methyl-benzotriazol-5-amine]",3.5,2,> 100
"CCN(C)c1ccc2nn(-c3ccc(Cl)cc3)nc2c1 [Example 36, 2-(4-Chlorophenyl)-N-ethyl-N-methyl-benzotriazol-5-amine]",4.45,4.03,> 100
